From the supplement of paper PMC10307832 come the findings set out here.

Assay in all cases: relative viability (nuclei count vs DMSO), 5 days (fraction); higher = more cells survive
Compound in the assay “Pazopanib + Olaparib”: Cc1ccc(Nc2nccc(N(C)c3ccc4c(C)n(C)nc4c3)n2)cc1S(N)(=O)=O [Pazopanib] + O=C(c1cc(Cc2n[nH]c(=O)c3ccccc23)ccc1F)N1CCN(C(=O)C2CC2)CC1 [Olaparib] (partner 8 µM)
Summed up: (§1)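 Lung cancer cell lines in 1536-well plates got either a single drug or a fixed anchor-drug dose together with five library-drug doses (not always all listed) in √10 steps, by pin tool, on the day after seeding. Nuclei were counted after 5 days, and relative viability is the treated-to-vehicle ratio of nuclei counts. Values are medians of duplicate plates.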

Compound in the assay “Ponatinib + Foretinib”: Cc1ccc(C(=O)Nc2ccc(CN3CCN(C)CC3)c(C(F)(F)F)c2)cc1C#Cc1cnc2cccnn12 [Ponatinib] + COc1cc2c(Oc3ccc(NC(=O)C4(C(=O)Nc5ccc(F)cc5)CC4)cc3F)ccnc2cc1OCCCN1CCOCC1 [Foretinib] (partner 0.25 µM)
Summed up: as §1

Compound in the assay “Pazopanib + Tozasertib”: Cc1ccc(Nc2nccc(N(C)c3ccc4c(C)n(C)nc4c3)n2)cc1S(N)(=O)=O [Pazopanib] + Cc1cc(Nc2cc(N3CCN(C)CC3)nc(Sc3ccc(NC(=O)C4CC4)cc3)n2)n[nH]1 [Tozasertib] (partner 0.1 µM)
An outline of the steps: as §1

Compound in the assay “Ponatinib + Pictilisib”: Cc1ccc(C(=O)Nc2ccc(CN3CCN(C)CC3)c(C(F)(F)F)c2)cc1C#Cc1cnc2cccnn12 [Ponatinib] + CS(=O)(=O)N1CCN(Cc2cc3nc(-c4cccc5[nH]ncc45)nc(N4CCOCC4)c3s2)CC1 [Pictilisib] (partner 1 µM)
An outline of the steps:
as §1

With NCI-H1793, the relative viability with Pazopanib + Olaparib (first compound 0.03162 µM) is 0.8; with Pazopanib + Olaparib (first compound 0.1 µM), 1.03; with Pazopanib + Olaparib (first compound 0.3162 µM) it was 0.906; in the assay with Pazopanib + Olaparib (first compound 1 µM) it was 1.05; with Ponatinib + Foretinib (first compound 0.002 µM), 0.749; in the assay with Ponatinib + Foretinib (first compound 0.006325 µM) it was 0.696. The relative viability was determined as 0.707 in the assay with Ponatinib + Foretinib (first compound 0.06325 µM); 0.539 with Ponatinib + Foretinib (first compound 0.2 µM); 0.347 with Pazopanib + Tozasertib (first compound 0.03162 µM); 0.275 with Pazopanib + Tozasertib (first compound 0.1 µM); 0.367 in the assay with Pazopanib + Tozasertib (first compound 0.3162 µM); 0.374 with Pazopanib + Tozasertib (first compound 1 µM). Besides, the relative viability with Ponatinib + Pictilisib (first compound 0.002 µM) is 0.335; with Ponatinib + Pictilisib (first compound 0.006325 µM), 0.344; in the assay with Ponatinib + Pictilisib (first compound 0.06325 µM) it was 0.206; with Ponatinib + Pictilisib (first compound 0.2 µM), 0.356.

Turning to SK-MES-1, the relative viability with Pazopanib + Olaparib (first compound 0.01 µM) turned out to be 0.659; with Pazopanib + Olaparib (first compound 0.03162 µM), 0.684; with Pazopanib + Olaparib (first compound 0.1 µM), 0.76; with Pazopanib + Olaparib (first compound 0.3162 µM) it was 0.75; in the assay with Pazopanib + Olaparib (first compound 1 µM) it was 0.685; with Ponatinib + Foretinib (first compound 0.002 µM), 0.856. For the same cell line, the relative viability stood at 1.08 with Ponatinib + Foretinib (first compound 0.006325 µM); 1.25 in the assay with Ponatinib + Foretinib (first compound 0.06325 µM); 0.959 in the assay with Ponatinib + Foretinib (first compound 0.2 µM); 0.934 with Pazopanib + Tozasertib (first compound 0.01 µM); 0.891 with Pazopanib + Tozasertib (first compound 0.03162 µM); 0.916 with Pazopanib + Tozasertib (first compound 0.1 µM). Moreover, the relative viability stood at 0.905 in the assay with Pazopanib + Tozasertib (first compound 0.3162 µM); 0.786 with Pazopanib + Tozasertib (first compound 1 µM); 0.392 in the assay with Ponatinib + Pictilisib (first compound 0.002 µM); 0.409 in the assay with Ponatinib + Pictilisib (first compound 0.006325 µM); 0.569 with Ponatinib + Pictilisib (first compound 0.06325 µM); 0.48 with Ponatinib + Pictilisib (first compound 0.2 µM).

Take PC-14: the relative viability in the assay with Pazopanib + Olaparib (first compound 0.01 µM) was 0.335; in the assay with Pazopanib + Olaparib (first compound 0.03162 µM), 0.329; in the assay with Pazopanib + Olaparib (first compound 0.1 µM), 0.371; with Pazopanib + Olaparib (first compound 0.3162 µM), 0.235; with Pazopanib + Olaparib (first compound 1 µM) it was 0.319; with Ponatinib + Foretinib (first compound 0.002 µM), 0.981. In addition, the relative viability with Ponatinib + Foretinib (first compound 0.006325 µM) worked out at 1.04; with Ponatinib + Foretinib (first compound 0.06325 µM), 1.14; with Ponatinib + Foretinib (first compound 0.2 µM), 0.975; with Pazopanib + Tozasertib (first compound 0.01 µM), 0.69; with Pazopanib + Tozasertib (first compound 0.03162 µM), 0.636; with Pazopanib + Tozasertib (first compound 0.1 µM), 0.725. Also, the relative viability in the assay with Pazopanib + Tozasertib (first compound 0.3162 µM) turned out to be 0.586; with Pazopanib + Tozasertib (first compound 1 µM), 0.603; with Ponatinib + Pictilisib (first compound 0.002 µM) it was 0.637; in the assay with Ponatinib + Pictilisib (first compound 0.006325 µM), 0.691; with Ponatinib + Pictilisib (first compound 0.06325 µM), 0.794; with Ponatinib + Pictilisib (first compound 0.2 µM), 0.702.

As to CAL-12T, the relative viability with Pazopanib + Olaparib (first compound 0.01 µM) is 0.854; with Pazopanib + Olaparib (first compound 0.03162 µM), 0.783; in the assay with Pazopanib + Olaparib (first compound 0.1 µM), 0.694; with Pazopanib + Olaparib (first compound 0.3162 µM), 0.74; in the assay with Pazopanib + Olaparib (first compound 1 µM), 0.707; with Ponatinib + Foretinib (first compound 0.002 µM), 1.16. In addition, the relative viability in the assay with Ponatinib + Foretinib (first compound 0.006325 µM) worked out at 0.979; with Ponatinib + Foretinib (first compound 0.06325 µM), 1.21; with Ponatinib + Foretinib (first compound 0.2 µM) it was 1.09; in the assay with Pazopanib + Tozasertib (first compound 0.01 µM), 0.247; in the assay with Pazopanib + Tozasertib (first compound 0.03162 µM), 0.327; with Pazopanib + Tozasertib (first compound 0.1 µM), 0.312. Moreover, the relative viability was determined as 0.297 in the assay with Pazopanib + Tozasertib (first compound 0.3162 µM); 0.294 in the assay with Pazopanib + Tozasertib (first compound 1 µM); 0.425 in the assay with Ponatinib + Pictilisib (first compound 0.002 µM); 0.464 with Ponatinib + Pictilisib (first compound 0.006325 µM); 0.515 with Ponatinib + Pictilisib (first compound 0.06325 µM); 0.432 with Ponatinib + Pictilisib (first compound 0.2 µM).
